Series [1] has as its system mouse. As to the kind of experiment: Toxicity, LD50 48 hours after intracerebral injection in mice. Format: in vivo. As to conditions: 48 hours after injection. As to the method: (§1) Toxicity is listed as LD50 in mg I/kg body weight 12 days after intravenous injection and 48 hours after intracerebral injection in mice. The osmotic pressure was determined at 37° C. in solutions containing 400 mg I per ml, unless specifically noted otherwise, and is indicated in atmospheres.

The nature of series [2]: Osmotic pressure of aqueous solutions at 37° C. It is filed as physicochemical. As to the method:
as §1

Series [3] can be described thus: Solubility in water, methanol and ethanol. It is filed as physicochemical.
Series [4] in a line: Viscosity of aqueous solutions at body temperature. As to conditions: aqueous solutions containing. Format: physicochemical.
A short description of series [5]: Stability and storage life of solutions. Format: physicochemical. Conditions: aqueous solutions.
Series [6] can be described thus: General toxicity and side effects. As to conditions: in words. Format: in vivo.
Series [7] concerns mouse. The experiment in a line: Toxicity, LD50 12 days after intravenous injection in mice. Format: in vivo. Conditions: 12 days after injection. Here is the method: Properties of compounds A, B, C, D of this invention, of the chemically nearest known compounds E, F, and of chemically less closely related known radiopaque compounds G, H, I used heretofore for visualizing blood vessels and cavities of the spinal cord and the brain are listed in the Table hereinbelow. Toxicity is listed as LD50 in mg I/kg body weight 12 days after intravenous injection and 48 hours after intracerebral injection in mice. The osmotic pressure was determined at 37° C. in solutions containing 400 mg I per ml, unless specifically noted otherwise, and is indicated in atmospheres.

A further series deals with rabbits. As to the kind of experiment: Intracisternal toxicity, LD50 (48 hours) in rabbits. Format: in vivo. As to the method:
The preferred compounds of the invention are those identified in the table above by letters B and C. […] LD50 (48 hours) in rabbits is about 233 mg I per kg.

The mark [8] stands for this setting: water, 20° C., read-out: solubility in water.

Converted amounts (≈) assume the structure as drawn. “Also recorded” adds a separate entry of the source. Where two headings read alike, the source gives them in different places. Where only a bound is given, the exact number is not on record here.

As for `CC(O)C(=O)Nc1c(I)c(C(=O)NCCOCCOCCNC(=O)c2c(I)c(NC(=O)C(C)O)c(I)c(C(=O)NC(CO)CO)c2I)c(I)c(C(=O)NC(CO)CO)c1I` (stereo not shown) [Compound A, 1,8-bis-[5,-(1,3-dihydroxyisopropyl)aminocarbonyl-3-(2-hydroxypropionyl)amino-2,4,6-triiodo-benzoylamino]-3,6,dioxaoctane], the “Toxicity, LD50, intracerebral” value in the series with mouse [1] came to 1100 mg I/kg. The Osmotic pressure in series [2] (400 mg I per ml) is on record as 8.15 atm. The solubility in ethanol result in series [3] (boiling ethanol) is recorded as “about 2.5%”; in series [3] (ethanol, in words), “sparingly soluble in ethanol”; in series [3] (ethanol, room temperature), “about 1%”. In series [3] (methanol, in words), the solubility in methanol entry is “soluble in methanol”. The solubility is around 500 mg/mL (≈ 329 mM) in series [3] (setting [8]) and around 1000 mg/mL (≈ 658 mM) in series [3] (water, boiling temperature, read-out: solubility in water).

Regarding `CC(O)C(=O)Nc1c(I)c(C(=O)NCCCOCCOCCOCCOCCCNC(=O)c2c(I)c(NC(=O)C(C)O)c(I)c(C(=O)NC(CO)CO)c2I)c(I)c(C(=O)NC(CO)CO)c1I` (stereo not shown) [Compound B, 1,16-bis-[5-(1,3-dihydroxyisopropyl)aminocarbonyl-3-(2-hydroxypropionyl)amino-2,4,6-triiodobenzoylamino]-4,7,10,13-tetraoxahexadecane], the “Toxicity, LD50, intracerebral” value in the series on mouse [1] stood at 990 mg I/kg. Also, the solubility in series [3] (methanol, organic solvent or mixture, boiling methanol, read-out: solubility in methanol) was 500 mg/mL (≈ 306 mM); in series [3] (setting [8]), around 1000 mg/mL (≈ 611 mM). The viscosity result in series [4] is listed as “relatively low viscosity”. The stability of solutions entry in series [5] was “stable”. For the same compound, the “storage life of solutions” value in series [5] was “long storage life”. Moreover, in series [6], the side effects entry is listed as “lack of side effects”.

With `CC(O)C(=O)Nc1c(I)c(C(=O)NC(CO)CO)c(I)c(C(=O)N(C)CCOCCOCCOCCN(C)C(=O)c2c(I)c(NC(=O)C(C)O)c(I)c(C(=O)NC(CO)CO)c2I)c1I` (stereo not shown) [Compound C, 1,11-bis [N-methyl-N-{5-(1,3-dihydroxyisopropyl)aminocarbonyl-3-(2-hydroxypropionyl)amino-2,4,6-triiodobenzoyl}-amino]-3,6,9-trioxaundecane], in the series with mouse [7], the “Toxicity, LD50, intravenous” value turned out to be 14000 mg I/kg. Besides, in the series on mouse [1], the “Toxicity, LD50, intracerebral” value is listed as 1130 mg I/kg. The Osmotic pressure in series [2] (400 mg I per ml) was 10.59 atm. In the series with rabbits (in words), the intracisternal toxicity result is “particularly low”. For the same compound, the “LD50 (48 hours), intracisternal” value in the series with rabbits (rabbits, 48 hours) was “about 233 mg I per kg”. Further, the solubility in ethanol entry in series [3] (ethanol, in words) is “only moderately well in ethanol”. Moreover, the solubility in water entry in series [3] (water, in words) is listed as “dissolves readily in water”. Also, in series [4], the viscosity entry is listed as “relatively low viscosity”. In series [5], the stability of solutions result is listed as “stable” and the “storage life of solutions” value is “long storage life”. The side effects result in series [6] is “lack of side effects”.

Consider `CC(O)C(=O)Nc1c(I)c(C(=O)NC(CO)CO)c(I)c(C(=O)N(C)CCCOCCOCCOCCOCCCN(C)C(=O)c2c(I)c(NC(=O)C(C)O)c(I)c(C(=O)NC(CO)CO)c2I)c1I` (stereo not shown) [Compound D, 1,16-bis-[N-methyl-N-{5-(1,3-dihydroxyisopropyl)aminocarbonyl-3-(2-hydroxypropionyl)amino-2,4,6-triiodobenzoyl}amino]-4,7,10,13-tetraoxahexadecane], for which the “Toxicity, LD50, intracerebral” value in the series with mouse [1] is on record as 1420 mg I/kg. The Osmotic pressure in series [2] (400 mg I per ml) was found to be 9.42 atm. Besides, the solubility in methanol result in series [3] (methanol, in words) is “soluble in methanol”. For the same compound, in series [3] (water, in words), the solubility in water result was “dissolves very readily in water; also recorded: readily dissolved in water”.

In the case of `CC(O)C(=O)Nc1c(I)c(C(=O)NC(CO)CO)c(I)c(C(=O)NC(CO)CO)c1I` (stereo not drawn) [E, 5-α-hydroxypropionylamino-2,4,6-triiodo-isophthalic acid-bis-(1,3-dihydroxyisopropylamide)], in the series with mouse [7], the “Toxicity, LD50, intravenous” value was 21800 mg I/kg. In the series with mouse [1], the “Toxicity, LD50, intracerebral” value was determined as 1500 mg I/kg. This compound also yielded an Osmotic pressure in series [2] (400 mg I per ml) of 22.2 atm.

As for `CC(O)C(=O)Nc1c(I)c(C(=O)NCCCOCCOCCOCCOCCCNC(=O)c2c(I)c(NC(=O)C(C)O)c(I)c(C(=O)NC(C)(CO)CO)c2I)c(I)c(C(=O)NC(C)(CO)CO)c1I` (stereo not shown) [Example 9, 1,16-bis-[5-(1,3-dihydroxy-2-methyl-2propyl)aminocarbonyl-3-(2-hydroxypropionyl)amino-2,4,6-triiodo-benzoylamino]-4,7,10,13tetraoxahexadecane], in series [3] (water, in words), the solubility in water result is given as “dissolves readily in water”.

With `CC(O)C(=O)Nc1c(I)c(C(=O)NCCOCCOCCOCCOCCNC(=O)c2c(I)c(NC(=O)C(C)O)c(I)c(C(=O)NC(C)(CO)CO)c2I)c(I)c(C(=O)NC(C)(CO)CO)c1I` (stereo not shown) [Example 10, 1,14-bis-[5-(1,3-dihydroxy-2methyl-2-propyl)aminocarbonyl-3-(2-hydroxypropionyl)amino-2,4,6-triiodo-benzoylamino]-3,6,9,12-tetraoxatetradecane], the solubility in water entry in series [3] (water, in words) was “dissolved readily in water”.

With `CC(O)C(=O)Nc1c(I)c(C(=O)NCCOCCNC(=O)c2c(I)c(NC(=O)C(C)O)c(I)c(C(=O)NC(C)(CO)CO)c2I)c(I)c(C(=O)NC(C)(CO)CO)c1I` (stereo not shown) [Example 11, 1,5-Bis-[5-(1,3-dihydroxy-2-methyl-2-propyl)aminocarbonyl-3-(2-hydroxypropionyl)amino-2,4,6-triiodo-benzoylamino]-3-oxapentane], the solubility in series [3] (water, per 100 ml, 20° C., read-out: solubility in water) is above 1000 mg/mL.

Turning to `O=C(CO)Nc1c(I)c(C(=O)NCCOCCOCCOCCOCCNC(=O)c2c(I)c(NC(=O)CO)c(I)c(C(=O)NC(CO)CO)c2I)c(I)c(C(=O)NC(CO)CO)c1I` [Example 12, 1,14-bis-[5-(1,3-dihydroxyisopropyl)aminocarbonyl-3-hydroxy-acetylamino-2,4,6-triiodo-benzoylamino]-3,6,9,12-tetraoxa-tetradecane], the solubility in water result in series [3] (water, in words) was “readily dissolved in water”.

For `CC(=O)Nc1c(I)c(C(=O)N[C@H]2C(O)O[C@H](CO)[C@@H](O)[C@@H]2O)c(I)c(N(C)C(C)=O)c1I` (stereo partly shown) [F, 3-acetylamino-5-N-methyl-acetylamino-2,4,6-triiodo-benzoyl-glucosamine], in the series on mouse [7], the “Toxicity, LD50, intravenous” value is given as 10200 mg I/kg. Also, the “Toxicity, LD50, intracerebral” value with mouse [1] worked out at 1400 mg I/kg. The compound also yielded an Osmotic pressure in series [2] (400 mg I per ml) of 14.7 atm.

As to `CNC(=O)c1c(I)c(NC(=O)CCCCC(=O)Nc2c(I)c(C(=O)O)c(I)c(C(=O)NC)c2I)c(I)c(C(=O)O)c1I` [G, 5,5'-adipoyldiimino-bis-(2,4,6-triiodo-N-methyl-isophthalamic acid)], in the series with mouse [7], the “Toxicity, LD50, intravenous” value was 5500 mg I/kg. Besides, the “Toxicity, LD50, intracerebral” value in the series with mouse [1] stood at 600 mg I/kg. This compound yielded an Osmotic pressure in series [2] (280 mg I/ml) of 27.5 atm.

For `CNC(=O)c1c(I)c(NC(=O)CN(CC(=O)Nc2c(I)c(C(=O)O)c(I)c(C(=O)NC)c2I)CC(=O)Nc2c(I)c(C(=O)O)c(I)c(C(=O)NC)c2I)c(I)c(C(=O)O)c1I` [H, 5,5',5"-(nitrilotriacetyl-triimino-tris-)-2,4,6-triiodo-N'-methyl-isophthalamic acid], the “Toxicity, LD50, intravenous” value in the series with mouse [7] was determined as 5800 mg I/kg. For the same compound, in series [2] (400 mg I per ml), the Osmotic pressure is 36.2 atm.

In the case of `CC(=O)Nc1c(I)c(NC(C)=O)c(I)c(C(=O)O)c1I` [I, 3,5-bis-acetylamino-2,4,6-triiodobenzoic acid], the “Toxicity, LD50, intravenous” value with mouse [7] was 7600 mg I/kg.

In general, solubility refers to the dissolved amount per volume that the medium holds.

The values are drawn from patent publication US4139605A, “Water-soluble, non-ionizing, radiopaque compounds and contrast compositions containing the same” (Bracco Industria Chimica S.p.A., priority 1977, dated 1979).
